ChEMBL document CHEMBL2074080, “Enhanced drug-induced apoptosis associated with P-glycoprotein overexpression is specific to antimicrotubule agents” (Pharm Res, 2003)

The compounds below were run against ATP-dependent translocase ABCB1 (Homo sapiens, UniProt P08183) (assay: TP_TRANSPORTER: drug resistance in MDR1-expressing MCF7 cells).
Type: functional, cell-based

Sequence of ATP-dependent translocase ABCB1 (P08183 whole entry): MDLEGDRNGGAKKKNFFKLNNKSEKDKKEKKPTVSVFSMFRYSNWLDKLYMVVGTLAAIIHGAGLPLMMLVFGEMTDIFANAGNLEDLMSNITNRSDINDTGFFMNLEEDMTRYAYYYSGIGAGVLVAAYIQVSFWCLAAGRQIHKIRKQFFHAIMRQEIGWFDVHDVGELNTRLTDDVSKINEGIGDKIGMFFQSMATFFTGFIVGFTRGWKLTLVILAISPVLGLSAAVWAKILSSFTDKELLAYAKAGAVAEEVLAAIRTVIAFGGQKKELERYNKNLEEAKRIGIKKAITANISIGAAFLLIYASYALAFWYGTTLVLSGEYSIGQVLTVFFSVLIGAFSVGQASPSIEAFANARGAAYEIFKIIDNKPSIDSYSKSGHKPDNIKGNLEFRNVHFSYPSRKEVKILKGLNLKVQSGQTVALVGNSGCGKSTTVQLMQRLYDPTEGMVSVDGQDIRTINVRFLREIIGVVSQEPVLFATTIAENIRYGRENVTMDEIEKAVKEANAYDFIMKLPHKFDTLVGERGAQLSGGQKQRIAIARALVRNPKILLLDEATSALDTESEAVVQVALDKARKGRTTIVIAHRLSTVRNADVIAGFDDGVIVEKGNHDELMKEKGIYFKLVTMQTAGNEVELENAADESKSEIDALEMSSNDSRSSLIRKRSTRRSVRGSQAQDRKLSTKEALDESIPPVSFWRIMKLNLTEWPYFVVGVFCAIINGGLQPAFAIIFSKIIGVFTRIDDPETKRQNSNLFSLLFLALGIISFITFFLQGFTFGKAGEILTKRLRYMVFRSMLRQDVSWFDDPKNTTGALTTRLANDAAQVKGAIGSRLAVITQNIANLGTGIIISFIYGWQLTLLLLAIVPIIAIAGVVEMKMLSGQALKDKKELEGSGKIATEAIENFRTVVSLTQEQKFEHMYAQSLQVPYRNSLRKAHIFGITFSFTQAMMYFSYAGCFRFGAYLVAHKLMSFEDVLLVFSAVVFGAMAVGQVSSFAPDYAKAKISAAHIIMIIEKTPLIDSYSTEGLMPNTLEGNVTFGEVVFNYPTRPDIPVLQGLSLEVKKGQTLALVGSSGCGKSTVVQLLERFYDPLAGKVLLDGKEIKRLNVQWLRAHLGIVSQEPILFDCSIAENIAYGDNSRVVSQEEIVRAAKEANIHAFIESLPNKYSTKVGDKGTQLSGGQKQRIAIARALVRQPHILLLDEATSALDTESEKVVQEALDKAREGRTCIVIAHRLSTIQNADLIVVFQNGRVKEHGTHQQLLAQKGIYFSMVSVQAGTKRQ

Activity | Compound
substrate [+] | CC(=O)O[C@H]1C(=O)[C@@]2(C)[C@H]([C@H](OC(=O)c3ccccc3)[C@]3(O)C[C@H](OC(=O)[C@H](O)[C@@H](NC(=O)c4ccccc4)c4ccccc4)C(C)=C1C3(C)C)[C@]1(OC(C)=O)CO[C@@H]1C[C@@H]2O [PACLITAXEL]
substrate [+] | CC[C@]1(O)C[C@H]2CN(CCc3c([nH]c4ccccc34)[C@@](C(=O)OC)(c3cc4c(cc3OC)N(C=O)[C@H]3[C@@](O)(C(=O)OC)[C@H](OC(C)=O)[C@]5(CC)C=CCN6CC[C@]43[C@@H]65)C2)C1 [VINCRISTINE]

Continued, compound first:

Compound | Activity
O=c1[nH]c(=O)n([C@@H]2O[C@H](CO)[C@@H](O)[C@H]2O)cc1F [5-FLUOROURIDINE] | is not a substrate [-]
CC[C@@]1(O)C(=O)OCc2c1cc1n(c2=O)Cc2cc3ccccc3nc2-1 [CAMPTOTHECIN] | is not a substrate [-]
COc1cccc2c1C(=O)c1c(O)c3c(c(O)c1C2=O)C[C@@](O)(C(=O)CO)C[C@@H]3O[C@H]1C[C@H](N)[C@H](O)[C@H](C)O1 [DOXORUBICIN] | substrate [+]
CISPLATIN | is not a substrate [-]
